Measured values: PubChem BioAssay (NCI)
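Step 1: Grow cells in 96-well plates. Step 2: Expose to compound for 48 hours at 5 concentrations. Step 3: Interpolate endpoints linearly; if unreached, use highest concentration. Here, GI50 denotes the concentration required for 50% inhibition of growth. TGI is the concentration that stops growth completely.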

Columns and labels:
Experiment in all cases: growth of human tumour cells (NCI), 48 h
786-0 renal = tested on: 786-0 renal
A498 renal = tested on: A498 renal
A549 NSCLC = tested on: A549 NSCLC
ACHN renal = tested on: ACHN renal
BT-549 breast = tested on: BT-549 breast
CAKI-1 renal = tested on: CAKI-1 renal
CCRF-CEM leukemia = tested on: CCRF-CEM leukemia
COLO 205 colon = tested on: COLO 205 colon
DU-145 prostate = tested on: DU-145 prostate
EKVX NSCLC = tested on: EKVX NSCLC
HCC-2998 colon = tested on: HCC-2998 colon
HCT-116 colon = tested on: HCT-116 colon
HCT-15 colon = tested on: HCT-15 colon
HL-60(TB) leukemia = tested on: HL-60(TB) leukemia
HOP-62 NSCLC = tested on: HOP-62 NSCLC
HOP-92 NSCLC = tested on: HOP-92 NSCLC
HS 578T breast = tested on: HS 578T breast
HT29 colon = tested on: HT29 colon
IGROV1 ovarian = tested on: IGROV1 ovarian
K-562 leukemia = tested on: K-562 leukemia
KM12 colon = tested on: KM12 colon
LOX IMVI melanoma = tested on: LOX IMVI melanoma
M14 melanoma = tested on: M14 melanoma
MALME-3M melanoma = tested on: MALME-3M melanoma
MCF7 breast = tested on: MCF7 breast
MDA-MB-231 breast = tested on: MDA-MB-231 breast
MDA-MB-435 = tested on: MDA-MB-435
MOLT-4 leukemia = tested on: MOLT-4 leukemia
NCI-H226 lung = tested on: NCI-H226 lung

**Q.** With `CC1(C)C(N(O)C(=O)Nc2ccc(Cl)cc2)N(c2ccc(Cl)cc2)C(=O)N1CC(=O)N/N=C/C=C/c1ccc([N+](=O)[O-])o1` (stereo unspecified) as the compound, how does the GI50 (786-0 renal) read?
**A.** 2.75 µM

**Q.** And the TGI (786-0 renal)?
**A.** 10.3 µM

**Q.** What about the GI50 (A498 renal) of the same compound?
**A.** 1.73 µM

**Q.** And the TGI (A498 renal)?
**A.** 4.12 µM

**Q.** What about the GI50 (A549 NSCLC) of the same compound?
**A.** 3.11 µM

**Q.** And the TGI (A549 NSCLC)?
**A.** > 28.5 µM

**Q.** What about the GI50 (ACHN renal) of the same compound?
**A.** 3.16 µM

**Q.** What about the TGI (ACHN renal) of the same compound?
**A.** > 100 µM

**Q.** What about the GI50 (BT-549 breast) of the same compound?
**A.** 1.6 µM

**Q.** And the TGI (BT-549 breast)?
**A.** 5.19 µM

**Q.** What about the GI50 (CAKI-1 renal) of the same compound?
**A.** > 23.2 µM

**Q.** What about the TGI (CAKI-1 renal) of the same compound?
**A.** > 100 µM

**Q.** What about the GI50 (CCRF-CEM leukemia) of the same compound?
**A.** 0.604 µM

**Q.** What about the TGI (CCRF-CEM leukemia) of the same compound?
**A.** 2.2 µM

**Q.** What about the GI50 (COLO 205 colon) of the same compound?
**A.** 1.33 µM

**Q.** And the TGI (COLO 205 colon)?
**A.** 2.85 µM

**Q.** And the GI50 (DU-145 prostate)?
**A.** 1.85 µM

**Q.** What about the TGI (DU-145 prostate) of the same compound?
**A.** 4.07 µM

**Q.** What about the GI50 (EKVX NSCLC) of the same compound?
**A.** 3.17 µM

**Q.** What about the TGI (EKVX NSCLC) of the same compound?
**A.** > 83.4 µM

**Q.** And the GI50 (HCC-2998 colon)?
**A.** 1.7 µM

**Q.** And the TGI (HCC-2998 colon)?
**A.** 3.43 µM

**Q.** What about the GI50 (HCT-116 colon) of the same compound?
**A.** 0.731 µM

**Q.** What about the TGI (HCT-116 colon) of the same compound?
**A.** 2.52 µM

**Q.** What about the GI50 (HCT-15 colon) of the same compound?
**A.** 2.49 µM

**Q.** What about the TGI (HCT-15 colon) of the same compound?
**A.** > 100 µM

**Q.** What about the GI50 (HL-60(TB) leukemia) of the same compound?
**A.** 1.09 µM

**Q.** And the TGI (HL-60(TB) leukemia)?
**A.** 4 µM

**Q.** And the GI50 (HOP-62 NSCLC)?
**A.** 2.76 µM

**Q.** And the TGI (HOP-62 NSCLC)?
**A.** 6.2 µM

**Q.** What about the GI50 (HOP-92 NSCLC) of the same compound?
**A.** 0.522 µM

**Q.** What about the TGI (HOP-92 NSCLC) of the same compound?
**A.** 2.31 µM

**Q.** And the GI50 (HS 578T breast)?
**A.** 3 µM

**Q.** What about the TGI (HS 578T breast) of the same compound?
**A.** > 84.4 µM

**Q.** What about the GI50 (HT29 colon) of the same compound?
**A.** 1.92 µM

**Q.** And the TGI (HT29 colon)?
**A.** > 22.6 µM

**Q.** What about the GI50 (IGROV1 ovarian) of the same compound?
**A.** 2.46 µM

**Q.** What about the GI50 (K-562 leukemia) of the same compound?
**A.** 1.57 µM

**Q.** And the TGI (K-562 leukemia)?
**A.** 6.03 µM

**Q.** And the GI50 (KM12 colon)?
**A.** 1.71 µM

**Q.** What about the TGI (KM12 colon) of the same compound?
**A.** 3.76 µM

**Q.** What about the GI50 (LOX IMVI melanoma) of the same compound?
**A.** 1.56 µM

**Q.** And the TGI (LOX IMVI melanoma)?
**A.** 3.04 µM

**Q.** And the GI50 (M14 melanoma)?
**A.** 1.88 µM

**Q.** What about the TGI (M14 melanoma) of the same compound?
**A.** 7.08 µM

**Q.** And the GI50 (MALME-3M melanoma)?
**A.** 1.29 µM

**Q.** What about the TGI (MALME-3M melanoma) of the same compound?
**A.** 3.08 µM

**Q.** What about the GI50 (MCF7 breast) of the same compound?
**A.** 1.01 µM

**Q.** What about the TGI (MCF7 breast) of the same compound?
**A.** > 26.7 µM

**Q.** What about the GI50 (MDA-MB-231 breast) of the same compound?
**A.** 2.04 µM

**Q.** What about the TGI (MDA-MB-231 breast) of the same compound?
**A.** 7.57 µM

**Q.** And the GI50 (MDA-MB-435)?
**A.** 2.61 µM

**Q.** And the TGI (MDA-MB-435)?
**A.** 10.9 µM

**Q.** What about the GI50 (MOLT-4 leukemia) of the same compound?
**A.** 0.804 µM

**Q.** And the TGI (MOLT-4 leukemia)?
**A.** 4.47 µM

**Q.** And the GI50 (NCI-H226 lung)?
**A.** 1.99 µM
